Values of other authors, collected in US20160082141A1, “CHITIN AND ALGINATE COMPOSITE FIBERS” (THE BOARD OF TRUSTEES OF THE UNIVERSITY OF ALABAMA, priority 2013, published 2016).

Conditions: Dubbs and Gupta 1998

SMILES: Cc1c(C)c2c(c(C)c1O)CC[C@@](C)(CCC[C@H](C)CCC[C@H](C)CCCC(C)C)O2 [Vitamin E, α-tocopherol]
- Solubility in water, mass fraction: 20.9×10^−6 g vitamin E/g water
- Solubility in water, mol fraction: 0.87×10^−6 mole vitamin E/mole water
